Inconclusive results and toxic doses are left out. The calls were made as follows: active = survival T/C of 150% or more; inactive = T/C below 125% in these data.
System: CD2F1 mice, L1210 leukemia ip, survival T/C
Test: NCI In Vivo Anticancer Drug Screen. Data for tumor model L1210 Leukemia (intraperitoneal) in CD2F1 (CDF1) mice
Settings: endpoint: mean survival time, higher = longer survival
Summary of the method: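 Tumor-bearing mice (transplanted tumor) were split into treated and vehicle control groups, and the measured endpoint of each treated group was divided by that of its vehicle controls.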

[1] = dose: 100.0 mg/kg/injection, schedule: Q04DX003 (ip), vehicle: saline
[2] = dose: 200.0 mg/kg/injection, schedule: Q01DX009 (ip), vehicle: saline
[3] = dose: 200.0 mg/kg/injection, schedule: Q04DX003 (ip), vehicle: saline
[4] = dose: 400.0 mg/kg/injection, schedule: Q01DX009 (ip), vehicle: saline
[5] = dose: 400.0 mg/kg/injection, schedule: Q04DX003 (ip), vehicle: saline
[6] = dose: 100.0 mg/kg/injection, schedule: Q04DX003 (ip), vehicle: saline with Tween-80
[7] = dose: 200.0 mg/kg/injection, schedule: Q04DX003 (ip), vehicle: saline with Tween-80
[8] = dose: 100.0 mg/kg/injection, schedule: Q01DX001 (ip), vehicle: saline with Tween-80
[9] = dose: 200.0 mg/kg/injection, schedule: Q01DX001 (ip), vehicle: saline with Tween-80
[10] = dose: 400.0 mg/kg/injection, schedule: Q01DX001 (ip), vehicle: saline with Tween-80
[11] = dose: 100.0 mg/kg/injection, schedule: Q01DX009 (ip), vehicle: saline with Tween-80
[12] = dose: 200.0 mg/kg/injection, schedule: Q01DX009 (ip), vehicle: saline with Tween-80
[13] = dose: 400.0 mg/kg/injection, schedule: Q01DX009 (ip), vehicle: saline with Tween-80
[14] = dose: 400.0 mg/kg/injection, schedule: Q04DX003 (ip), vehicle: saline with Tween-80

Measured: T/C

NC(=O)c1n[nH]c(C2CC(O)C(CO)O2)n1 (centres undefined)
inactive: dose: 12.5 mg/kg/injection, schedule: Q01DX005 (ip), vehicle: water 96 % of control | dose: 25.0 mg/kg/injection, schedule: Q01DX005 (ip), vehicle: water 91 % of control | dose: 50.0 mg/kg/injection, schedule: Q01DX005 (ip), vehicle: water 92 % of control | dose: 100.0 mg/kg/injection, schedule: Q01DX005 (ip), vehicle: water 96 % of control | dose: 200.0 mg/kg/injection, schedule: Q01DX005 (ip), vehicle: water 94 % of control

O=S(=O)(/C(=C\c1ccccc1)c1ccccc1)c1ccccc1
inactive: [1] 90 % of control | [2] 90 % of control | [3] 92 % of control | [4] 88 % of control | [5] 90 % of control

O=C(C=C(C(F)(F)Cl)C(F)(F)Cl)c1cccs1
inactive: dose: 5.0 mg/kg/injection, schedule: Q04DX003 (ip), vehicle: saline 98 % of control | dose: 10.0 mg/kg/injection, schedule: Q04DX003 (ip), vehicle: saline 104 % of control | dose: 20.0 mg/kg/injection, schedule: Q04DX003 (ip), vehicle: saline 103 % of control

COc1nccnc1NS(=O)(=O)c1ccc(N)cc1
inactive: [1] 98 % of control | [3] 100 % of control | [5] 104 % of control

CC([NH-])C(C)[NH-].CC([NH-])C(C)[NH-].[Cl][Co][Cl] (centres undefined)
inactive: dose: 100.0 mg/kg/injection, schedule: Q04DX002 (ip), vehicle: saline 103 % of control

CC(=O)NCc1cnccn1
inactive: dose: 100.0 mg/kg/injection, schedule: Q04DX003 (ip), vehicle: saline sonified 103 % of control | dose: 200.0 mg/kg/injection, schedule: Q04DX003 (ip), vehicle: saline sonified 102 % of control | dose: 400.0 mg/kg/injection, schedule: Q04DX003 (ip), vehicle: saline sonified 102 % of control

CN(C)C(=O)Nc1cccc(OS(=O)(=O)N(C)C)c1
inactive: [6] 99 % of control | [7] 96 % of control

C[n+]1ccc2ccccc2c1
inactive: dose: 75.0 mg/kg/injection, schedule: Q01DX001 (ip), vehicle: saline 103 % of control | dose: 150.0 mg/kg/injection, schedule: Q01DX001 (ip), vehicle: saline 103 % of control

CCCCCCCCCCCCCC[n+]1ccc(C#N)cc1
inactive: dose: 7.5 mg/kg/injection, schedule: Q01DX001 (ip), vehicle: saline 97 % of control | dose: 7.5 mg/kg/injection, schedule: Q01DX009 (ip), vehicle: saline 100 % of control | dose: 15.0 mg/kg/injection, schedule: Q01DX001 (ip), vehicle: saline 92 % of control | dose: 15.0 mg/kg/injection, schedule: Q01DX009 (ip), vehicle: saline 103 % of control | dose: 30.0 mg/kg/injection, schedule: Q01DX001 (ip), vehicle: saline 100 % of control | dose: 30.0 mg/kg/injection, schedule: Q01DX009 (ip), vehicle: saline 107 % of control

O=C(C[n+]1cccc(C(=O)NCc2ccccc2)c1)Nc1ccccc1
inactive: [1] 96 % of control

CN1CCCC1CN1c2ccccc2Sc2ccccc21 (centres undefined)
inactive: [1] 102 % of control

CCC[CH2][Sn]1([CH2]CCC)[O]CC2OC(n3cc(C)c(=O)[nH]c3=O)CC2[O]1 (centres undefined)
inactive: dose: 0.78 mg/kg/injection, schedule: Q01DX005 (ip), vehicle: other 97 % of control | dose: 1.56 mg/kg/injection, schedule: Q01DX005 (ip), vehicle: other 101 % of control | dose: 3.13 mg/kg/injection, schedule: Q01DX005 (ip), vehicle: other 106 % of control

Cc1ccc(C2=C(c3ccc(C)cc3)CS(=O)(=O)C2)cc1
inactive: [8] 92 % of control | [9] 93 % of control | [10] 92 % of control | dose: 800.0 mg/kg/injection, schedule: Q01DX001 (ip), vehicle: saline with Tween-80 92 % of control

CC1=COC2CCCCC2O1 (centres undefined) (tested in a mixture with another compound)
inactive: [11] 95 % of control | [12] 97 % of control | [13] 91 % of control

COc1cc2c(cc1OC)C(Cc1ccc3cc(OC)c(OC)cc3c1)=NCC2
inactive: [11] 93 % of control | [6] 87 % of control | [12] 101 % of control | [7] 89 % of control | [13] 110 % of control | [14] 101 % of control

O=C1c2ccccc2C(=O)N1OC1CCCCO1 (centres undefined)
inactive: dose: 100.0 mg/kg/injection, schedule: Q04DX003 (ip), vehicle: Klucel (hydroxypropylcellulose) (HPC) 92 % of control | dose: 200.0 mg/kg/injection, schedule: Q04DX003 (ip), vehicle: Klucel (hydroxypropylcellulose) (HPC) 102 % of control | dose: 400.0 mg/kg/injection, schedule: Q04DX003 (ip), vehicle: Klucel (hydroxypropylcellulose) (HPC) 94 % of control

NC(CSC1c2ccccc2-c2ccccc21)C(=O)O (centres undefined)
inactive: dose: 25.0 mg/kg/injection, schedule: Q01DX009 (ip), vehicle: saline 102 % of control | dose: 50.0 mg/kg/injection, schedule: Q01DX009 (ip), vehicle: saline 103 % of control | dose: 100.0 mg/kg/injection, schedule: Q01DX009 (ip), vehicle: saline 102 % of control | [2] 96 % of control | [4] 103 % of control

O=C1c2ccccc2C(=O)c2cc(N3C(=O)C=CC3=O)ccc21
inactive: dose: 100.0 mg/kg/injection, schedule: Q01DX001 (ip), vehicle: saline 97 % of control | dose: 200.0 mg/kg/injection, schedule: Q01DX001 (ip), vehicle: saline 96 % of control

CC1=CC(O)(c2ccccc2)C(C)=CC1=O (centres undefined)
inactive: [8] 97 % of control | [9] 97 % of control | [10] 93 % of control

O/N=C\c1ccc(/C=N/O)cc1
inactive: [6] 94 % of control | [7] 92 % of control

NC1CCC(CCCC2CCCC2)CC1 (centres undefined)
inactive: dose: 6.25 mg/kg/injection, schedule: Q01DX009 (ip), vehicle: saline with Tween-80 102 % of control | dose: 12.5 mg/kg/injection, schedule: Q01DX009 (ip), vehicle: saline with Tween-80 98 % of control | dose: 25.0 mg/kg/injection, schedule: Q01DX009 (ip), vehicle: saline with Tween-80 102 % of control

BrC=C=C1CCCCC1
inactive: [6] 95 % of control | [7] 93 % of control | [14] 97 % of control

CS(=O)(=O)OCCN(CCOS(C)(=O)=O)c1ccc(N=O)cc1
active: dose: 7.5 micrograms/kg/injection, schedule: Q03HX024 (ip), vehicle: saline 234 % of control
inactive: dose: 0.25 mg/kg/injection, schedule: Q01DX009 (ip), vehicle: saline 101 % of control | dose: 0.5 mg/kg/injection, schedule: Q01DX001 (ip), vehicle: saline 113 % of control | dose: 0.5 mg/kg/injection, schedule: Q01DX005 (ip), vehicle: saline 103 % of control | dose: 0.5 mg/kg/injection, schedule: Q01DX009 (ip), vehicle: saline 91 % of control | dose: 1.0 mg/kg/injection, schedule: Q01DX005 (ip), vehicle: saline 114 % of control | dose: 1.0 mg/kg/injection, schedule: Q04DX003 (ip), vehicle: saline 97 % of control | dose: 2.0 mg/kg/injection, schedule: Q01DX001 (ip), vehicle: saline 114 % of control | dose: 2.0 mg/kg/injection, schedule: Q04DX003 (ip), vehicle: saline 97 % of control | dose: 31.3 micrograms/kg/injection, schedule: Q03HX024 (ip), vehicle: saline 115 % of control

Source: PubChem BioAssay AID256 (DTP/NCI, 2004)
